Results taken from US10800815B2, “Kv1.3 potassium channel antagonists” (cgtx-Peptide Development GmbH, priority 2014, dated 2020).
pIC50: −log10 of the molar value. “Also recorded” adds a separate entry of the source.

Legend:
Kv1.1 = molecular target: T1, Kv1.1 (Homo sapiens, UniProt Q09470); assay: Patch-clamp measurement of Kv1.1 channel inhibition (Example 1); format: cell-based; set-up: dose or concentration left out as unconfirmed
T1 construct: expressed in transfected cells; host or cells: Sf21 insect cells, baculovirus infection
T1 sequence (Q09470 whole entry): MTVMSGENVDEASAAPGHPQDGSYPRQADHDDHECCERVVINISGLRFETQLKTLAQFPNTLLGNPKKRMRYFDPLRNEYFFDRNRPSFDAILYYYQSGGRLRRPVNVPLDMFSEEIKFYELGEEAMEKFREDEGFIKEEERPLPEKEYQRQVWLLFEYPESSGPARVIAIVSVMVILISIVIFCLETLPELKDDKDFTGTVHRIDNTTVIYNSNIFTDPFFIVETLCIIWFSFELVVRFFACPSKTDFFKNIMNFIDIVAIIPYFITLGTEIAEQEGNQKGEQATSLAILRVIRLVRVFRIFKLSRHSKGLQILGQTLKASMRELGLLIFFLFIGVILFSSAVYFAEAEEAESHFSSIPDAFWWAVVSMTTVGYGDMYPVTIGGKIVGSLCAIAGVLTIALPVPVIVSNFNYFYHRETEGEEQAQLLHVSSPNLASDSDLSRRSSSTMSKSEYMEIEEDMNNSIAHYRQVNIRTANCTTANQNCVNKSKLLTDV
Procedure: (§1) FIGS. 1A-1F Measurement of Kv1.3 (FIGS. 1B and 1E), Kv1.5 (FIGS. 1C and 1F) and Kv1.1 (FIGS. 1A and 1D) channel inhibition by patch-clamp.
(§2) Peptides were dissolved at 1 μg/μl in 20 mM NaPO4 buffer pH 8.2 (1 mg in 1 ml folding buffer) and dialysed against the same buffer 3×1 L, Float-a-Lyzer cut off 500 Da (Spectrapor) at room temperature.
(§3) HsTx 1 binding was tested at various concentrations of e.g. 100 pM, 1 nM, 10 nM, 50 nM, 100 nM, 500 nM, and 1 μM—depending on the tested channel. Representative measurements for Kv 1.1, Kv1.3 and Kv1.5 are depicted in FIGS. 1 a), 1 b), and 1 c) respectively.
(§4) Cgtx-544 binding was tested at various concentrations of e.g. 1 nM, 10 nM, 50 nM, 100 nM, 1 μM, and 5 μM—depending on the tested channel. Representative measurements for Kv1.1, Kv1.3 and Kv1.5 are depicted in FIGS. 1 d), 1e), and 1) f, respectively.

Kv1.5 = molecular target: T2, Kv1.5 (Homo sapiens, UniProt P22460); assay: Patch-clamp measurement of Kv1.5 channel inhibition (Example 1); format: cell-based; details: up to a concentration of 10 μM
T2 construct: expressed in transfected cells; host or cells: Sf21 insect cells, baculovirus infection
T2 sequence (P22460 whole entry): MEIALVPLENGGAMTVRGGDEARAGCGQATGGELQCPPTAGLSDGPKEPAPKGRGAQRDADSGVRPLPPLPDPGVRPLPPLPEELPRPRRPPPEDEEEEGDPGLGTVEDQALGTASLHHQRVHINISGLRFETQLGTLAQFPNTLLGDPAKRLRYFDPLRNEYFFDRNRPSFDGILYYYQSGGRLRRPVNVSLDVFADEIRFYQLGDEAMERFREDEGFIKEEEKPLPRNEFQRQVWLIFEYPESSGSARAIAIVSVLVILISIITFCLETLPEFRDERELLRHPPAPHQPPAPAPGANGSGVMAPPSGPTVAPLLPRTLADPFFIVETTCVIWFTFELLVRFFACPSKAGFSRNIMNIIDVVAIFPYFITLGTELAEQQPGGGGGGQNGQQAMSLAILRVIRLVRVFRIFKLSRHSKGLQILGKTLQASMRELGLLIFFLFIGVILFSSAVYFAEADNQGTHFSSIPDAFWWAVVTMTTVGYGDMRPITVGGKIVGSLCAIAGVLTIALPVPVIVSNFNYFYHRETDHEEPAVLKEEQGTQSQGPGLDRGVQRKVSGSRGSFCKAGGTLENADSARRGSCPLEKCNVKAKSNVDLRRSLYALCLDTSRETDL
Procedure: as §1, §2, §3, §4

Kv1.3 = Kv1.3 (Homo sapiens, UniProt P22001); assay: Kv1.3 block with prolonged incubation times; format: cell-based
Kv1.3, sequence (P22001 whole entry): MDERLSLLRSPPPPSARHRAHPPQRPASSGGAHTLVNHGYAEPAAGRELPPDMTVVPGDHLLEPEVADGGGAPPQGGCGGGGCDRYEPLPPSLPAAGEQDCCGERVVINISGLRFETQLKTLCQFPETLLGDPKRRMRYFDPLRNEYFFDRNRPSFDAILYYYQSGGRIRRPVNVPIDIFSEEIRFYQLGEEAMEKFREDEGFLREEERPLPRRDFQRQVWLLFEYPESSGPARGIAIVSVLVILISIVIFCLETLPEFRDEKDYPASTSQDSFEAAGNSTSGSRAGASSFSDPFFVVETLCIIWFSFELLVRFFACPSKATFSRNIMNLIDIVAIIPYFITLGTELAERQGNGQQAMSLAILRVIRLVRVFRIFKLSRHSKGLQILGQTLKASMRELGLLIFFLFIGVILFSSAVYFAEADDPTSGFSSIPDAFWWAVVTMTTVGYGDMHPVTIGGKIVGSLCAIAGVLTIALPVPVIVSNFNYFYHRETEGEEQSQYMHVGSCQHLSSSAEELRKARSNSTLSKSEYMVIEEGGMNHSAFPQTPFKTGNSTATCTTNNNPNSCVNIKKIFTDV

[1] = molecular target: T3, Kv1.3 channels expressed in Sf21 insect cells (Homo sapiens, UniProt P22001); assay: Stability ex vivo in human blood plasma, read out as IC50 on Kv1.3 (Example 3); format: in vitro ADME
T3 construct: expressed in transfected cells; host or cells: Sf21 insect cells, baculovirus infection
T3 sequence (P22001 whole entry): as above
Procedure: (§5) The aim was to test the stability of the cgtx-544 peptide in blood plasma of mammals after different incubation times at room temperature (RT) and 37° C. Stability was defined as IC50 value of cgtx-544 after different incubation times at RT and 37° C. Blood plasma was prepared from fresh blood samples from healthy rats or humans. Heparin was added to fresh blood samples to prevent clogging. Plasma preparation was performed by centrifugation for 2 min at 2000×g at RT.
(§6) As the cgtx-544 peptide used in these experiments was incompletely folded, a higher IC50 than normal was determined.
(§7) To investigate the stability and activity in plasma the peptide was added to freshly prepared human and rat blood plasma at a final concentration of 2 μM. The samples were split into two aliquots and incubated at 37° C. and at room temperature (RT, 20° C.). For the electrophysiological analysis serial dilutions of the samples were prepared.

[2] = molecular target: T3, Kv1.3 channels expressed in Sf21 insect cells; assay: Stability ex vivo in rat blood plasma, read out as IC50 on Kv1.3 (Example 3); format: in vitro ADME
Procedure: as §5, §6, §7

[3] = molecular target: T4, Kv1.3 channels endogenously expressed in TEM cells (Homo sapiens, UniProt P22001); assay: Block of Kv1.3 currents in isolated human TEM cells (Example 4); format: cell-based; details: incompletely folded peptide
T4 construct: endogenously expressed Kv1.3 channels in TEM cells; endogenous in cells
T4 sequence (P22001 whole entry): as above
From the text: The insect cell line Spodoptera frugiperda (Sf21) was used in combination with a Baculovirus infection system for the heterologous expression of recombinant ion channels. Sf21 cells offer highly specific protein expression and correct posttranslational modifications resulting in functional channels with proposed comparability of electrophysiological parameters of ion channels in vivo. Therefore, it was necessary to compare the electrophysiological properties of the potassium selective ion channel Kv1.3 expressed in Sf21 cells and endogenously expressed Kv1.3 channels in TEM cells.
For the comparison of characteristic voltage dependent Kv1.3 channel activation a typical voltage protocol from −60 mV to +60 mV in 20 mV steps (activation pulse 200 ms) was used. Cells were clamped at a holding potential of −100 mV.
The maximal observed current, which clearly originates from Kv1.3 activity, and the applied voltage allows to assess the total conductivity of all Kv1.3 channels. Accordingly, the number of channels can be extracted using the known conductivity of a single Kv1.3 channel. […] By variation of the infection conditions, it is possible to control the expression level of Kv1.3 in Sf21 cells, according to the needs of the investigation. Under our standard conditions a maximal current of 2-5 nA, a conductance of 33-50 nS and a number of 2500-3800 channels per cell can be estimated. […]

[4] = test system: antigen induced arthritis (AIA); assay: Antigen induced arthritis (AIA) rat model, knee joint swelling; format: in vivo; details: for effect on knee swelling, curative treatment: 1 mg/kg BW i.v. daily, start on day 0 or day 1, vs vehicle
in vivo = format: in vivo; details: rat, i.v., 750 μg/kg BW; listed as cgtx-544
Procedure: FIG. 34 Decrease of cgtx-544(Sing) in the serum of treated rats after i.v. injection. The concentration of unbound circulating cgtx-544(Sing) was calculated on the basis of a standard curve. Standard error of the mean is depicted in the error bars (n=6).
Rats received i.v. injections of cgtx-544(Sing) (750 μg/kg BW). Blood was withdrawn at time points 0, 1, 10 and 60 minutes. Subsequently, serum was prepared from blood samples. The cgtx-544 content in these samples was analyzed electrophysiologically by measuring the blocking effect on Kv1.3 channels expressed in CHO cells. […] In order to study the amount of unbound cgtx-544(Sing) in the rat, the amount of cgtx-544(Sing) present in the circulating blood at the time points referred above was calculated through a calibration curve. This calibration curve was obtained by adding known quantities of cgtx-544(Sing) to blood serum and subsequent electrophysiological measurements on Kv1.3 channels. The block of Kv1.3 currents by these spiked samples was similar to that obtained with cgtx-544(Sing) in the absence of serum (data not shown).

[5] = Biochemical properties: isoelectric point; format: physicochemical
[6] = read-out: IC50 on Kv1.3 after incubation in plasma, 48 h at 37° C.
[7] = read-out: IC50 on Kv1.3 in plasma, time point 0 h

CC[C@H](C)[C@H](NC(=O)[C@@H](N)[C@@H](C)O)C(=O)N[C@H](C(=O)N[C@@H](CC(N)=O)C(=O)N[C@H](C(=O)N[C@@H](CCCCN)C(=O)N[C@H]1CSSC[C@@H]2NC(=O)[C@H](CCCCN)NC(=O)CNC(=O)[C@H](Cc3ccc(O)cc3)NC(=O)[C@@H]3CCCN3C(=O)[C@@H]3CSSC[C@@H](C(=O)O)NC(=O)[C@H](CCCNC(=N)N)NC(=O)[C@H](CC(N)=O)NC(=O)[C@@H]4CSSC[C@H](NC(=O)[C@@H]5CCCN5C(=O)[C@@H]5CCCN5C(=O)[C@H](CC(C)C)NC(=O)[C@H](CSSC[C@H](NC(=O)[C@H](CCCCN)NC(=O)[C@H](CCCNC(=N)N)NC(=O)[C@H](CC(N)=O)NC(=O)[C@H](CCSC)NC2=O)C(=O)N[C@@H](CCCCN)C(=O)N4)NC(=O)[C@H](CCC(N)=O)NC(=O)[C@H](CCCCN)NC(=O)[C@@H]2CCCN2C(=O)[C@H](CO)NC(=O)[C@H]([C@@H](C)O)NC1=O)C(=O)N[C@@H](CCCCN)C(=O)N[C@@H](C)C(=O)N[C@@H](CCC(N)=O)C(=O)N[C@@H]([C@@H](C)O)C(=O)NCC(=O)N3)C(C)C)[C@@H](C)CC [Compound 7]
block of Kv1.1 (Kv1.1): about 22%
binding to Kv1.5 (Kv1.5): no binding
block of Kv1.3 currents (Kv1.3; long incubation times, i.e. 15 min): 60%
block of Kv1.3 currents (Kv1.3; short incubation times): 20%
significant change in activity ([1]; 24 h, 37° C. and RT): could not be detected
activity after incubation in plasma ([1]; 48 h at RT): remained unchanged
activity after incubation in plasma ([1]; 14 days at 37° C.): no activity was detected
activity after incubation in plasma ([1]; 14 days at RT): unchanged activity
pIC50 [1, 6]: 7.43
pIC50 [1, 7]: 7.68
significant change in activity ([2]; 24 h, 37° C. and RT): could not be detected
activity after incubation in plasma ([2]; 48 h at RT): remained unchanged
activity after incubation in plasma ([2]; 14 days at 37° C.): no activity was detected
activity after incubation in plasma ([2]; 14 days at RT): unchanged activity
pIC50 [2, 6]: 7.24
pIC50 [2, 7]: 7.82
Kv1.3 block on human TEM cells compared with Kv1.3 transfected Sf21 cells [3]: the same values
relative difference of knee swelling (normalized) ([4]; 1 mg/kg 1× daily i.v. from day −3): 0.18±0.05
reduction of knee swelling relative to the vehicle control group ([4]; 1 mg/kg 1× daily i.v., 24 h after arthritis induction): 60%
effect on knee swelling after second single injection ([4]; 1 mg/kg BW i.v. 1×d1 and 1×d4, listed as cgtx-544): reduced again to a significant value; also recorded: statistically significant reduction in knee swelling
effect on knee swelling, curative treatment ([4]; listed as cgtx-544): statistically significant reduction in knee swelling
effect on knee swelling, curative treatment ([4]; listed as cgtx-544(Mix)): clear reducing, and statistically significant effect; also recorded: significant reduction in knee joint swelling
knee joint swelling versus untreated (excipient) controls ([4]; 1 mg/kg BW i.v. from day −3): clear reduction of the knee joint swelling
knee diameters after seven days of treatment, curative ([4]; 1 mg/kg i.v. daily, start day 0 or day 1): nearly comparable to the non-induced, intra-individual control knee
maximal reduction of knee swelling, curative treatment ([4]; 1 mg/kg i.v. daily, therapy started on day 0 immediately after arthritis induction): 40%
maximal reduction of knee swelling, curative treatment ([4]; 1 mg/kg i.v. daily, therapy started on day 1): 58%
effect on knee swelling, preventive treatment ([4]; 0.1, 1 and 5 mg/kg BW i.v. daily, day −3 to day 6, vs vehicle, listed as cgtx-544): clear reducing, dose dependent and statistically significant effect; also recorded: statistically significant reduction in knee swelling
knee diameters after seven days of treatment, preventive ([4]; daily i.v. from day −3): nearly comparable to the non-induced, intra-individual control knee
maximal reduction of knee swelling, preventive treatment ([4]; daily i.v. from day −3): 70%
effect on knee swelling after single injection ([4]; single i.v. injection 1 mg/kg BW on day 1 (1×d1), 24 h after application, listed as cgtx-544, 1 mg/kg): clear and statistically significant reduction of knee swelling; also recorded: statistically significant reduction in knee swelling; also recorded: strong and sustained effect
in vivo half-life (in vivo): approximately 26 min
Isoelectric point [5]: 9.29
